Assays:
[1] = tested on: primary heart muscle cells from newborn rats; assay: Inhibitory activity on heart muscle cell apoptosis (serum-free culture, viable cell number by WST-8); assay type: cell-based, Wister rats; conditions: Rattus norvegicus, 96 h; mean of three independent experiments; concentration required to increase the mean viable cell number by 50% as compared with that in the absence of test compounds; serum-free Medium 199, 4 days
Source text: Inhibitory Activity on Heart Muscle Cell Apoptosis
Newborn rats (within 1 day afterbirth) were obtained from pregnant Wister rats purchased from Charles River, anesthetized under ether, and sterilized with 70% ethanol, and then their hearts were excised with tweezers. The excised hearts were washed with a phosphate-buffered physiological saline (T900; Takara) and cut into pieces with surgical scissors. These tissue pieces were washed 4 to 5 times with a phosphate-buffered physiological saline to remove a majority of blood-derived non-heart muscle cells. To the tissue pieces derived from 10 newborns, 5 ml of enzyme solution (1.25 mg trypsin (Difco) and 0.25 mg collagenase (Sigma) per ml of phosphate-buffered saline (PBS)) was added and the mixture was stirred with a stirrer at 37° C. for 15 minutes. Another 2.5 ml enzyme solution was then added twice repeatedly at a 15-minutes interval. Then, Medium 199 (Gibco) containing 10% fetal calf serum (Biowiker) was added in a half volume of the enzyme solution to terminate the enzyme reaction. The cells were filtered through a Cell Strainer (Falcon) and then centrifuged at 400×g for 5 minutes, whereby the cells were collected.
The cells thus collected from 10 newborns were suspended in 50 ml Medium 199 containing 10% fetal calf serum, plated onto 100 mm Petri dishes (Iwaki) in a volume of 10 ml/dish and cultured for 1 hour in a CO2 incubator set at 5% CO2 and 37° C. The cells were then recovered, filtered through a Cell Strainer and centrifuged at 400×g for 5 minutes to collect the primary heart muscle cells derived from newborn rats.
Then, the heart muscle cells from 10 newborn rats were suspended in 2 ml low-isotonic solution (prepared by dissolving 8.29 g NH4Cl, 1.0 g KHCO3, 37 mg EDTA/2Na (ethylenediaminetetraacetic acid disodium) (Dojindo) in 1 L of water) and left for 3 minutes to disrupt erythrocytes. After 10 ml Medium 199 containing 10% fetal calf serum was added thereto, the primary heart muscle cells from newborn rats were collected by centrifugation at 400×g for 5 minutes. The cells were suspended in Medium 199 containing 10% fetal calf serum and then filtered through a cell strainer. After 0.3% trypan blue was added to, and mildly mixed with, an aliquot of the resulting cell suspension, the number of heart muscle cells was counted on an erythrocyte counting plate.
The primary heart muscle cells from newborn rats were suspended at a density of 3×10^6 cells/ml in Medium 199 containing 10% fetal calf serum, put onto a 96-well plate in a volume of 0.1 ml/well, and then cultured in a CO2 incubator set at 5% CO2 and 37° C. After the plate was stirred with a micromixer (Taiyo Kagaku Kogyo), the medium was exchanged 3 times with serum-free Medium 199, and then test compounds were added thereto. The cells were cultured for additional 4 days to induce apoptosis. Then, fetal calf serum was added thereto at a concentration of 10%, and the cells were further cultured for about 17 hours in a CO2 incubator set at 5% CO2 and 37° C. Finally, the number of viable cells was determined with Cell Counting Kit (Dojindo) using WST-8 (2-(2-methoxy-4-nitrophenyl)-3-(4-nitrophenyl)-5-(2,4-disulfophenyl)-2H-tetrazolium, monosodium salt) as the coloring substrate to determine the inhibition of the heart muscle cell apoptosis.
The above-mentioned experiment was triplicated in an independent manner.
The Mean minimal effective concentration (±SD) was shown for each test compound (Compounds 1 to 5 obtained in Reference Examples) in Table 1. In Table 1, the minimal effective concentration is defined as the concentration required to increase the mean viable cell number by 50% as compared with that in the absence of test compounds.

Structure (SMILES)	melting point [°C]	minimal effective concentration [1] [µM]
O=c1nc(-c2cc[n+]([O-])cc2)sc2ccccc12 [Example 55]	248.2 to 251.7	0.016
CCN(CC)C(=O)c1cccc(-c2nc(=O)c3ccccc3s2)n1 [Example 105, N,N-Diethyl-6-(4-oxo-4H-1,3-benzothiazin-2-yl)-2-pyridinecarboxamide]	194 to 194.3	0.028
O=c1nc(-c2ccccn2)sc2cc(C(F)(F)F)ccc12 [Example 85, 2-(2-Pyridyl)-7-trifluoromethyl-4H-1,3-benzothiazine-4-one]	175.8 to 177	0.04
COCCNC(=O)c1cccc(-c2nc(=O)c3ccccc3s2)n1 [Example 83, N-(2-Methoxyethyl)-6-(4-oxo-4H-1,3-benzothiazin-2-yl)-2-pyridinecarboxamide]	175.5 to 176.7	0.027
COc1cccc(-c2nc(=O)c3ccccc3s2)n1 [Example 56, 2-(6-Methoxy-2-pyridyl)-4H-1,3-benzothiazine-4-one]	226 to 226.1	0.039
CCSc1cccc(-c2nc(=O)c3ccccc3s2)n1 [Example 126, 2-[6-(Ethylthio)-2-pyridyl]-4H-1,3-benzothiazine-4-one]	161.3 to 162	0.032
CCCNC(=O)c1cccc(-c2nc(=O)c3ccccc3s2)n1 [Example 50, 6-(4-Oxo-4H-1,3-benzothiazin-2-yl)-N-propyl-2-pyridinecarboxamide]	179.7 to 181.4	0.02
CCCCN(C)C(=O)c1cccc(-c2nc(=O)c3ccccc3s2)n1 [Example 103, N-Butyl-N-methyl-6-(4-oxo-4H-1,3-benzothiazin-2-yl)-2-pyridinecarboxamide]	80 to 81.6	0.042
O=c1nc(-c2cccc(OCc3ccccc3)n2)sc2ccccc12 [Example 57, 2-[6-(Benzyloxy)-2-pyridyl]-4H-1,3-benzothiazine-4-one]	240.9 to 241	0.033

From patent US7767665B2, “1,3-benzothiazinone derivatives and use thereof” (Takeda Pharmaceutical Company Limited, priority 2001, dated 2010)
